Like-named read-outs stand apart in the source and are kept apart here. d = 2'-deoxy (DNA); r = 2'-OH (RNA)
Experiments:
Type in all cases: cell-based
[1] = tested on: SARS-CoV-2 target gene fragments (Spike, ORF1ab, ORF3A & E & M, N & ORF10 & 3'UTR); details: for Primary Screening (KD %, 60 ng/well, 48 h, 96 well) A549 / EC50 (pg/ul, 48 h, 96 well) A549: Table C; for EC50 A549 cells: Table D
[2] = tested on: SARS-CoV-2 target gene fragments (Spike, ORF1ab, ORF3A & E & M, N & ORF10 & 3'UTR); details: for Primary Screening (KD %, 60 ng/well, 48 h, 96 well) 293T / EC50 (pg/ul, 48 h, 96 well) 293T: Table C; for EC50 293T cells: Table D
[3] = tested on: SARS-CoV-2; details: for block of infection at the lowest concentration tested / inhibition of infection compared to the NS control: concentration curves; for block of infection at the lowest concentration tested: 3 nM; for Duplicate A % Infection / Duplicate B % Infection / Mean % infected / Mean % inhibition / Duplicate A % Inhibition / Duplicate B % Inhibition: primary screen using live virus; for Mean % infected / Mean % inhibition: average of the duplicates; for Mean % inhibition: vs non-silencing controls; for Duplicate A % Inhibition / Duplicate B % Inhibition: compared to the mean of the non-silencing controls; for inhibition of infection compared to the NS control: individual siRNAs at varying concentrations, flat response

## CUUGCUGCUACUAAAAUGUdTdT [Guangzhou13]
[1]; A549
  Primary Screening (KD %, 60 ng/well, 48 h, 96 well) A549: 82%
[2]
  Primary Screening (KD %, 60 ng/well, 48 h, 96 well) 293T: 76%

## GGACAAUCAAAAAGAGUUGdTdT [Guangzhou16]
[1]; A549
  Primary Screening (KD %, 60 ng/well, 48 h, 96 well) A549: 80%
[2]
  Primary Screening (KD %, 60 ng/well, 48 h, 96 well) 293T: 83%
  EC50 (pg/ul, 48 h, 96 well) 293T: 20.4 pg/µL

## GGCCGCAAATTGCACAATT [COV14]
[3]
  block of infection at the lowest concentration tested: complete block of infection
  Duplicate A % Infection: 9%
  Duplicate B % Infection: 8%
  Mean % infected: 8%
  Mean % inhibition: 66%
  Duplicate A % Inhibition: 57%
  Duplicate B % Inhibition: 75%
  activity in a primary screen using live virus (ranking in words): best activity

## UUGGUGGUUUUAAUUUUUCACAAAU (antisense strand not given here) [Guangzhou31]
[1]; A549
  Primary Screening (KD %, 60 ng/well, 48 h, 96 well) A549: 73%
[2]
  Primary Screening (KD %, 60 ng/well, 48 h, 96 well) 293T: 81%
  EC50 (pg/ul, 48 h, 96 well) 293T: 44 pg/µL

## CCAGAACAAACCCAAGGAA [COV13]
[2]
  Primary Screening (KD %, 60 ng/well, 48 h, 96 well) 293T: 84%
  EC50 (pg/ul, 48 h, 96 well) 293T: 3.1 pg/µL
  EC50 293T cells: 3.1 ng/mL

## CCCACCAACAGAGCCTAAA [COV17]
[3]
  block of infection at the lowest concentration tested: complete block of infection

## UGCUAAUCUUGCUGCUACUAAAAUG (antisense strand not given here) [Guangzhou25]
[1]; A549
  Primary Screening (KD %, 60 ng/well, 48 h, 96 well) A549: 90%
[2]
  Primary Screening (KD %, 60 ng/well, 48 h, 96 well) 293T: 83%

## CUAAUCUUGCUGCUACUAAAAUGUC (antisense strand not given here) [Guangzhou23]
[1]; A549
  Primary Screening (KD %, 60 ng/well, 48 h, 96 well) A549: 87%
[2]
  Primary Screening (KD %, 60 ng/well, 48 h, 96 well) 293T: 79%

## CUAAUCUUGCUGCUACUAAdTdT [Guangzhou12]
[1]; A549
  Primary Screening (KD %, 60 ng/well, 48 h, 96 well) A549: 85%
[2]
  Primary Screening (KD %, 60 ng/well, 48 h, 96 well) 293T: 70%

## CCTTTGAAAAAGGTGACTA [COV5]
[1]; A549
  Primary Screening (KD %, 60 ng/well, 48 h, 96 well) A549: 84%
[2]
  Primary Screening (KD %, 60 ng/well, 48 h, 96 well) 293T: 85%

## UUUGGUGGUUUUAAUUUUUCACAAA (antisense strand not given here) [Guangzhou30]
[1]; A549
  Primary Screening (KD %, 60 ng/well, 48 h, 96 well) A549: 78%
[2]
  Primary Screening (KD %, 60 ng/well, 48 h, 96 well) 293T: 86%

## GCCGCAAATTGCACAATTT [COV15]
[3]
  block of infection at the lowest concentration tested: complete block of infection
  Duplicate A % Infection: 10%
  Duplicate B % Infection: 13%
  Mean % infected: 11%
  Mean % inhibition: 56%
  Duplicate A % Inhibition: 54%
  Duplicate B % Inhibition: 57%

## CUGCUAAUCUUGCUGCUACUAAAAU [Guangzhou21]
[1]; A549
  Primary Screening (KD %, 60 ng/well, 48 h, 96 well) A549: 91%
[2]
  Primary Screening (KD %, 60 ng/well, 48 h, 96 well) 293T: 81%

## GCCATTAGTGCAAAGAATA [COV4]
[3]
  inhibition of the virus: 100%
  block of infection at the lowest concentration tested: complete block of infection
  Duplicate A % Infection: 6%
  Duplicate B % Infection: 5%
  Mean % infected: 6%
  Mean % inhibition: 77%
  Duplicate A % Inhibition: 70%
  Duplicate B % Inhibition: 84%
  activity in a primary screen using live virus (ranking in words): best activity

## GGAAGGAAGTTCTGTTGAA [COV3]
[3]
  inhibition of the virus: 100%
  block of infection at the lowest concentration tested: complete block of infection
  Duplicate A % Infection: 3%
  Duplicate B % Infection: 6%
  Mean % infected: 5%
  Mean % inhibition: 81%
  Duplicate A % Inhibition: 84%
  Duplicate B % Inhibition: 79%
  activity in a primary screen using live virus (ranking in words): best activity
[3]; 0.041 nM alone
  inhibition, single siRNA alone: ~48%
[1]; A549
  EC50 on the inhibition efficiency: 0.3 ng/mL
  Primary Screening (KD %, 60 ng/well, 48 h, 96 well) A549: 89%
  EC50 (pg/ul, 48 h, 96 well) A549: 0.3 pg/µL
[1]
  EC50 A549 cells: 0.3 ng/mL
[2]
  EC50 on the inhibition efficiency: 5.8 ng/mL
  Primary Screening (KD %, 60 ng/well, 48 h, 96 well) 293T: 89%
  EC50 (pg/ul, 48 h, 96 well) 293T: 5.8 pg/µL
  EC50 293T cells: 5.8 ng/mL

## CCACCAACAGAGCCTAAAA [COV18]
[3]
  inhibition of the virus: 100%
  block of infection at the lowest concentration tested: complete block of infection
  Duplicate A % Infection: 9%
  Duplicate B % Infection: 7%
  Mean % infected: 8%
  Mean % inhibition: 68%
  Duplicate A % Inhibition: 59%
  Duplicate B % Inhibition: 76%
  activity in a primary screen using live virus (ranking in words): best activity

## UCUGCUAAUCUUGCUGCUACUAAAA (antisense strand not given here) [Guangzhou32]
[1]; A549
  Primary Screening (KD %, 60 ng/well, 48 h, 96 well) A549: 90%
[2]
  Primary Screening (KD %, 60 ng/well, 48 h, 96 well) 293T: 89%
  EC50 (pg/ul, 48 h, 96 well) 293T: 8 pg/µL
  EC50 293T cells: ~8 ng/mL

## GGAAGAGCCCTAATGTGTA [COV21]
[3]
  block of infection at the lowest concentration tested: complete block of infection

## CAAGUCAAACAAAUUUACAdTdT (sense CAAGUCAAACAAAUUUACATT; sugars from the 5' end r19 d2, backbone not given here) [Guangzhou5]
[1]; A549
  Primary Screening (KD %, 60 ng/well, 48 h, 96 well) A549: 80%
[2]
  Primary Screening (KD %, 60 ng/well, 48 h, 96 well) 293T: 75%

## GCUAAUCUUGCUGCUACUAAAAUGU [Guangzhou22]
[1]; A549
  Primary Screening (KD %, 60 ng/well, 48 h, 96 well) A549: 90%
[2]
  Primary Screening (KD %, 60 ng/well, 48 h, 96 well) 293T: 83%
  EC50 (pg/ul, 48 h, 96 well) 293T: 23.2 pg/µL

## CCCTAATGTGTAAAATTAA [COV23]
[3]
  block of infection at the lowest concentration tested: complete block of infection

## CGACTACTAGCGTGCCTTT [COV6]
[3]
  inhibition of infection compared to the NS control: ~50%
[1]; A549
  Primary Screening (KD %, 60 ng/well, 48 h, 96 well) A549: 87%
  EC50 (pg/ul, 48 h, 96 well) A549: 0.9 pg/µL
[1]
  EC50 A549 cells: 0.9 ng/mL
[2]
  Primary Screening (KD %, 60 ng/well, 48 h, 96 well) 293T: 78%
  EC50 (pg/ul, 48 h, 96 well) 293T: 17.9 pg/µL
  EC50 293T cells: 17.9 ng/mL

## CGCTTCGATTGTGTGCGTA [COV9]
[3]
  inhibition of infection compared to the NS control: ~50%
[1]; A549
  Primary Screening (KD %, 60 ng/well, 48 h, 96 well) A549: 74%
[2]
  Primary Screening (KD %, 60 ng/well, 48 h, 96 well) 293T: 88%

## CCTAATGTGTAAAATTAAT [COV24]
[3]
  block of infection at the lowest concentration tested: complete block of infection
[2]
  Primary Screening (KD %, 60 ng/well, 48 h, 96 well) 293T: 86%
  EC50 (pg/ul, 48 h, 96 well) 293T: 2.4 pg/µL
  EC50 293T cells: 2.4 ng/mL

Source: patent US12006500B2 (priority 2020, dated 2024)
